According to US20260242753A1, “NOVEL INHIBITORS OF HISTONE […] NUCLEAR LOCALISATION” (The Council of the Queensland Institute of Medical Research, priority 2022, published 2026):

System: SETDB1, CSV, ATF7IP, IMPα1 in H1299 cells
Assay: IFA microscopy of SETDB1, CSV, ATF7IP, IMPα1 in H1299
Format: cell-based, human
Design: dose or concentration left out as unconfirmed
Method: FIG. 18. […] Protein targets were localized by ASI digital pathology. […] Protein targets were localized by ASI digital pathology.
IFA microscopy and cell culture methods were performed as described in detail, above.

## Mithramycin A [MTH]
  expression of mesenchymal metastatic marker CSV: induced an increase
  nuclear expression of SETDB1: no effect
